Results published in ChEMBL document CHEMBL5380821, “Discovery of a PDZ Domain Inhibitor Targeting the Syndecan/Syntenin Protein-Protein Interaction: A Semi-Automated "Hit Identification-to-Optimization" Approach” (J Med Chem, 2023).
Active and inactive are the calls of the source. The calls are words filed in the database; no cut-off is given here.

Legend:
[1] = molecular target: Syntenin-1/Syndecan-2 (Homo sapiens, UniProt O00560); assay: Inhibition of full length N-terminal GST-tagged human syntenin-1 expressed in Escherichia coli ER2566/syndecan2 (unknown origin) interaction incubated for 16 hrs by HTRF assay
Sequence of Syntenin-1/Syndecan-2 (P34741 whole entry, one chain of several, further chain): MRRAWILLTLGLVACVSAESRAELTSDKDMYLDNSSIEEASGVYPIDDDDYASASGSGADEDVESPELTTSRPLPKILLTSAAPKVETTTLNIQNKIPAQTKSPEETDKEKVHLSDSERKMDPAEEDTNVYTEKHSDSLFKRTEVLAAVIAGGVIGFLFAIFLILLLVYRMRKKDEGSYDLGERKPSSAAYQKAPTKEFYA

[2] = system: MDA-MB-231; assay: Cytotoxicity against wild-type human MDA-MB-231 cells assessed as reduction in cell viability upto 100 uM measured after 48 hrs by Annexin V-FITC staining based flow cytometric analysis; assay type: functional
[3] = system: MDA-MB-231; assay: Inhibition of cell migration in wild-type human MDA-MB-231 cells assessed as decrease in euclidean distance at 100 uM incubated for 24 hrs by 2D phase contrast video microscopic analysis; assay type: functional, cell-based
[4] = system: MDA-MB-231; assay: Inhibition of cell migration in wild-type human MDA-MB-231 cells assessed as decrease in migration speed at 1 to 10 uM incubated for 24 hrs by 2D phase contrast video microscopic analysis; assay type: functional, cell-based; details: dose 1-10 µM
[5] = system: MDA-MB-231; assay: Cytotoxicity against human MDA-MB-231 cells with syntenin CRISPR/Cas9 knockout assessed as reduction in cell viability upto 100 uM measured after 48 hrs by Annexin V-FITC staining based flow cytometric analysis; assay type: functional
[6] = system: MDA-MB-231; assay: Inhibition of cell migration in wild-type human MDA-MB-231 cells assessed as decrease in euclidean distance at 1 to 10 uM incubated for 24 hrs by 2D phase contrast video microscopic analysis; assay type: functional, cell-based; details: dose 1-10 µM
[7] = system: MDA-MB-231; assay: Inhibition of cell migration in human MDA-MB-231 cells with syntenin CRISPR/Cas9 knockout assessed as decrease in migration speed at 100 uM incubated for 24 hrs by 2D phase contrast video microscopic analysis; assay type: functional, cell-based
[8] = molecular target: T1, Syntenin-1 (Homo sapiens, UniProt O00560); assay: Binding affinity to full length N-terminal GST-tagged human syntenin-1 expressed in Escherichia coli ER2566 assessed as dissociation constant by ITC analysis
T1 sequence (O00560 whole entry): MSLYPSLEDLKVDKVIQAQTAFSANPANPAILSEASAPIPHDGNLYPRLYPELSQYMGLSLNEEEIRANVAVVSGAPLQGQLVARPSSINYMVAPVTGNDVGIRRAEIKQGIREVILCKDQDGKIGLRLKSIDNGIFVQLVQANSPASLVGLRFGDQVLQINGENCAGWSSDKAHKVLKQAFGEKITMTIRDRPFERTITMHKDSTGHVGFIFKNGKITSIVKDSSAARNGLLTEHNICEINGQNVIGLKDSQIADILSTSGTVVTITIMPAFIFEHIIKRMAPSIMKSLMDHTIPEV

[9] = system: MDA-MB-231; assay: Inhibition of cell migration in human MDA-MB-231 cells with syntenin CRISPR/Cas9 knockout assessed as decrease in euclidean distance at 100 uM incubated for 24 hrs by 2D phase contrast video microscopic analysis; assay type: functional, cell-based
[10] = molecular target: GRASP55-JAMB (Homo sapiens) (UniProt Q9H8Y8+P57087); assay: Inhibition of N-terminal GST-tagged GRASP55 (unknown origin) expressed in Escherichia coli BL21 (DE3) cells/JAM-B (unknown origin) complex incubated for 16 hrs by HTRF assay
Sequence of GRASP55-JAMB (Homo sapiens) (P57087 whole entry, looked up, other chains not shown): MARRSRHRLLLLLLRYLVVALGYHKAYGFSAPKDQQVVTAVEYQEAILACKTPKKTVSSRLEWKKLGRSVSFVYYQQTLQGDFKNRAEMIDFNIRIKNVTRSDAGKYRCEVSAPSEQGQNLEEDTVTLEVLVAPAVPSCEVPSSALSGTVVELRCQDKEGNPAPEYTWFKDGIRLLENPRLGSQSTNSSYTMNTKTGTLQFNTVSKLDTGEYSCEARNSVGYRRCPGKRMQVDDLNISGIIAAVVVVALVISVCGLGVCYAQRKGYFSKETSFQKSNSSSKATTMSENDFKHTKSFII

[11] = system: MDA-MB-231; assay: Inhibition of cell migration in wild-type human MDA-MB-231 cells assessed as decrease in migration speed at 100 uM incubated for 24 hrs by 2D phase contrast video microscopic analysis; assay type: functional, cell-based
[12] = molecular target: ERBIN-P0071 (Homo sapiens) (UniProt Q96RT1+Q99569); assay: Inhibition of N-terminal GST-tagged Erbin (unknown origin) expressed in Escherichia coli BL21 (DE3) cells/P0071 (unknown origin) complex incubated for 16 hrs by HTRF assay
Sequence of ERBIN-P0071 (Homo sapiens) (Q96RT1 whole entry, looked up): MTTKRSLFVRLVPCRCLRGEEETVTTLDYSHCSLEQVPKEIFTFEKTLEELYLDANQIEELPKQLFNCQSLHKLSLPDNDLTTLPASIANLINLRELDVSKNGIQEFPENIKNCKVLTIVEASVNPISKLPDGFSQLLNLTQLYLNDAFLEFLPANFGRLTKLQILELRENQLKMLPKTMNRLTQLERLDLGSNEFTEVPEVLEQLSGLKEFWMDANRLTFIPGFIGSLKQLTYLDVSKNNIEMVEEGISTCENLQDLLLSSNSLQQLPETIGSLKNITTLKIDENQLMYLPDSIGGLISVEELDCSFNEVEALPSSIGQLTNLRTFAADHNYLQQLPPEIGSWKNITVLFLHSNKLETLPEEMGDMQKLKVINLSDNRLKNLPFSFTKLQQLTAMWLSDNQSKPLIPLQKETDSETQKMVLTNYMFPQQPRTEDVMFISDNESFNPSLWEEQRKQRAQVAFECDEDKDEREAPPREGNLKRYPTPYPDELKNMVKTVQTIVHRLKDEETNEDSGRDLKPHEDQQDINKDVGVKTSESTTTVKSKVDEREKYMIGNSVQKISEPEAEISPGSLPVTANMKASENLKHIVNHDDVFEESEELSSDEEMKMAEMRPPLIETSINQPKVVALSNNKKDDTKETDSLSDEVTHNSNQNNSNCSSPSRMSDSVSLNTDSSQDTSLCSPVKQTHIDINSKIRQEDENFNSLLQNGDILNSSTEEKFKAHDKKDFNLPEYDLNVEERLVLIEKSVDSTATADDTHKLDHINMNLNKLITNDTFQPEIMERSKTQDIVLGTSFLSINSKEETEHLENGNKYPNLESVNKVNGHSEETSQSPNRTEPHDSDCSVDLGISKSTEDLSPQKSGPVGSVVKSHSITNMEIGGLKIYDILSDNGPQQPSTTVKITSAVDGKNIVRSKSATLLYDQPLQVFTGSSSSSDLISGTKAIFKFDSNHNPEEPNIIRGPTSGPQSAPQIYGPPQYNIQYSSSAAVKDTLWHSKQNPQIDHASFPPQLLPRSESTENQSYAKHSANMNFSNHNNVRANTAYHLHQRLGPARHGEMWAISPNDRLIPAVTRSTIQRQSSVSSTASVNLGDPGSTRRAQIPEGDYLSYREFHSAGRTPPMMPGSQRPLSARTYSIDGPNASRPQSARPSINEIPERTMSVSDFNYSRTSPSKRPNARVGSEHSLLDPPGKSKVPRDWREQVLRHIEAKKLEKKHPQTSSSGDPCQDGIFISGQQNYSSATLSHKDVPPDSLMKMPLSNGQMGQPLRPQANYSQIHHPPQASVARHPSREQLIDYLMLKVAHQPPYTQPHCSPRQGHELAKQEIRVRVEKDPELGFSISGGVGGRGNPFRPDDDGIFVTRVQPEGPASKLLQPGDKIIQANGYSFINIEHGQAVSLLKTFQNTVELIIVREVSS
Sequence of ERBIN-P0071 (Homo sapiens) (Q99569 whole entry, looked up): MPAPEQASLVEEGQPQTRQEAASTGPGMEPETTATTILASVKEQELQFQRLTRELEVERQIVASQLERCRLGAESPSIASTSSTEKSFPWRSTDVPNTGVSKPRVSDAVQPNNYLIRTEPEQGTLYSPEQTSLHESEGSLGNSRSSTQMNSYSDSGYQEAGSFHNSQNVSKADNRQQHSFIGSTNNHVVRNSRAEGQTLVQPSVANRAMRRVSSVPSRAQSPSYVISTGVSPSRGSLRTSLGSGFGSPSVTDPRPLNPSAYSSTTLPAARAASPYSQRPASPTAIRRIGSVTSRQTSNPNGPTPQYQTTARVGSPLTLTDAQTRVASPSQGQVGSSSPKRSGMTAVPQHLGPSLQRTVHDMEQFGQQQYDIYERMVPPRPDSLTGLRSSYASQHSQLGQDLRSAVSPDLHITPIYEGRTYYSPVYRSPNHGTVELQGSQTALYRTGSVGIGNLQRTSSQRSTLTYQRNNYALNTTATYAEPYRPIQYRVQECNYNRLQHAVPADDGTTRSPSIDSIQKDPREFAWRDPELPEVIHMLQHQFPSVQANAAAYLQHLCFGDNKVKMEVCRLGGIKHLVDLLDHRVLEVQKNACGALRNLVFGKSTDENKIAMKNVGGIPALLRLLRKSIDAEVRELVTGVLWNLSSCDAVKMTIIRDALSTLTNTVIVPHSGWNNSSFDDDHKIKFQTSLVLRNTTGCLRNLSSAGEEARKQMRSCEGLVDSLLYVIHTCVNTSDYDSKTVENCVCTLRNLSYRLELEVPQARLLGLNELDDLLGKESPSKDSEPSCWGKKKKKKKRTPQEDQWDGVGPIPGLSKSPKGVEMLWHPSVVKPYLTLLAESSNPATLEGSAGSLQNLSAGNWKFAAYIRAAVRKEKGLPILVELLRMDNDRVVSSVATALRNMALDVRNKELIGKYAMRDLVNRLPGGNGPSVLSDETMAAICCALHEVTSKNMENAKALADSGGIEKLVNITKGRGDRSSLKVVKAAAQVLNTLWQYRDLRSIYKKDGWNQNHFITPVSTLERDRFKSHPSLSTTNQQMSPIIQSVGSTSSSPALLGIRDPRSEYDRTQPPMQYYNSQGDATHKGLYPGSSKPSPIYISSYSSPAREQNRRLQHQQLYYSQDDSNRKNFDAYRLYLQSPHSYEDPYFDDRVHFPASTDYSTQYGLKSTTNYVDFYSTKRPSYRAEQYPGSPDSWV

[13] = molecular target: T2, Syntenin-1/Syndecan-2 (Homo sapiens) (UniProt O00560+P34741); assay: Inhibition of full length N-terminal GST-tagged human syntenin-1 expressed in Escherichia coli ER2566/syndecan2 (unknown origin) interaction at 200 uM incubated for 16 hrs by HTRF assay relative to control
[14] = molecular target: T2, Syntenin-1/Syndecan-2 (Homo sapiens); assay: Inhibition of full length N-terminal GST-tagged human syntenin-1 expressed in Escherichia coli ER2566/syndecan2 (unknown origin) interaction at 200 uM incubated for 16 hrs in the presence of NP-40 by HTRF assay

SMILES	IC50 [1] [µM]	also measured
C[C@H](NC(=O)[C@H](Cc1ccc(C#N)cc1)N1Cc2ccccc2C1=O)C(=O)O	180	
C[C@H](NC(=O)[C@H](Cc1ccc(-c2ccc3occc(=O)c3c2)cc1)N1Cc2ccccc2C1=O)C(=O)O	4	
CC(C)C[C@@H](C(=O)N[C@@H](C)C(=O)O)N1Cc2ccccc2C1=O	213	
CC(C)C[C@H](NC(=O)[C@H](CC(C)C)N1Cc2ccccc2C1=O)C(=O)O	> 500	
C[C@H](NC(=O)[C@H](Cc1c[nH]c2ccccc12)N1Cc2ccccc2C1=O)C(=O)O	33	
CC[C@H](C)[C@H](NC(=O)[C@H](Cc1ccccc1)N1Cc2ccccc2C1=O)C(=O)O	> 500	
C[C@H](NC(=O)[C@H](Cc1ccc2ccccc2c1)N1Cc2cc(Br)ccc2C1=O)C(=O)O	5.2	
CC(=O)c1ccc(F)c(-c2ccc(C[C@@H](C(=O)N[C@@H](C)C(=O)O)N3Cc4cc(Br)ccc4C3=O)cc2)c1	0.4	Activity [2]: inactive; inhibition [3]: Active; inhibition [4]: Active; Activity [5]: inactive; inhibition [6]: Active; inhibition [7]: inactive; Kd [8]: 1.8 µM; inhibition [9]: inactive; inhibition [10]: inactive; inhibition [11]: Active; inhibition [12]: inactive
C[C@H](NC(=O)[C@H](Cc1ccc(O)cc1)N1Cc2ccccc2C1=O)C(=O)O	44	
C[C@H](NC(=O)[C@H](Cc1ccc(Cl)cc1)N1Cc2ccccc2C1=O)C(=O)O	78	
C[C@H](NC(=O)[C@H](Cc1ccc(-c2ccccc2F)cc1)N1Cc2ccccc2C1=O)C(=O)O	9.9	
C[C@H](NC(=O)[C@H](Cc1ccc(-c2ccc3c(c2)C(=O)N(C)C3)cc1)N1Cc2ccccc2C1=O)C(=O)O	6.3	
C[C@H](NC(=O)C(CSCc1ccccc1)N1Cc2ccccc2C1=O)C(=O)O (single isomer, unassigned)	63	
COc1ccc(C[C@@H](C(=O)N[C@@H](C)C(=O)O)N2Cc3ccccc3C2=O)cc1	128	
COc1ccccc1NC(=O)N1CCCC(c2nc(O)c3nnn(Cc4ccc(C)cc4)c3n2)C1 (centres undefined)		inhibition [13]: > 60%
O=C(O)[C@H](Cc1ccccc1)NC(=O)[C@H](Cc1ccccc1)N1Cc2ccccc2C1=O	> 500	
CC(C)[C@H](NC(=O)[C@H](C(C)C)N1Cc2ccccc2C1=O)C(=O)O	> 500	
CC(C)[C@H](NC(=O)[C@H](Cc1ccccc1)N1Cc2ccccc2C1=O)C(=O)O	> 500	inhibition [3]: Active; inhibition [11]: Active
CC[C@H](C)[C@H](NC(=O)[C@H](C(C)C)N1Cc2ccccc2C1=O)C(=O)O	> 500	
CCOC(=O)C(Cc1c[nH]c2ccccc12)NC(=O)C(Cc1ccccc1)N1C(=O)c2ccccc2C1=O (centres undefined)		inhibition [13]: > 60%
C[C@H](NC(=O)[C@H](Cc1ccccc1)NC(=O)c1cc2cc(Cl)ccc2n1C)C(=O)O		inhibition [13]: > 60%
CC(C)C[C@@H](C(=O)N[C@H](C(=O)O)C(C)C)N1Cc2ccccc2C1=O	> 500	
COc1ccc(F)c(-c2ccc(C[C@@H](C(=O)N[C@@H](C)C(=O)O)N3Cc4ccccc4C3=O)cc2)c1	10	

SMILES	IC50 [1] [µM]	also measured
CCOc1ccc2[nH]c(=O)c(CN(C3CCCCC3)C(CC)c3nnnn3C(C)(C)C)cc2c1 (centres undefined)		inhibition [13]: > 60%
CCOc1nc2ccccc2nc1N1CCCC(C(=O)N2CCc3ccccc3C2)C1 (centres undefined)		inhibition [13]: > 60%
CC(C)[C@@H](C(=O)N[C@@H](C)C(=O)O)N1Cc2ccc(Br)cc2C1=O	> 200	
CC(C)[C@@H](C(=O)N[C@@H](C)C(=O)O)N1Cc2cc(Br)ccc2C1=O	20	
C[C@H](NC(=O)[C@H](Cc1ccc2ccccc2c1)N1Cc2ccccc2C1=O)C(=O)O	13	
C[C@H](NC(=O)[C@H](Cc1ccc(Br)cc1)N1Cc2ccccc2C1=O)C(=O)O	35	
CC(C)[C@@H](C(=O)N[C@@H](C)C(=O)O)N1Cc2ccccc2C1=O	76	Activity [2]: inactive; inhibition [3]: Active; Activity [5]: inactive; inhibition [13]: > 60%; inhibition [7]: inactive; inhibition [9]: inactive; inhibition [10]: inactive; inhibition [11]: Active; inhibition [12]: inactive; inhibition [14]: Active
CC(=O)Nc1ccc(-c2ccc(C[C@@H](C(=O)N[C@@H](C)C(=O)O)N3Cc4cc(Br)ccc4C3=O)cc2)cc1	0.82	
CC(=O)Nc1ccc(-c2ccc(C[C@@H](C(=O)N[C@@H](C)C(=O)O)N3Cc4ccccc4C3=O)cc2)cc1	7.7	
C[C@H](NC(=O)[C@H](Cc1ccc(-c2cc(CO)ccc2F)cc1)N1Cc2ccccc2C1=O)C(=O)O	5.3	
CC(=O)c1ccc(F)c(-c2ccc(C[C@@H](C(=O)N[C@@H](C)C(=O)O)N3Cc4ccccc4C3=O)cc2)c1	4.2	
C[C@H](NC(=O)[C@H](Cc1ccccc1)N1Cc2ccccc2C1=O)C(=O)O	67	
Cc1ccc(C[C@@H](C(=O)N[C@@H](C)C(=O)O)N2Cc3ccccc3C2=O)cc1	> 200	
COc1cc2cc(C(=O)N(C)CCOc3cccc(Cl)c3)[nH]c2c(OC)c1OC		inhibition [13]: > 60%
CC(C)[C@@H](C(=O)N[C@@H](Cc1ccccc1)C(=O)O)N1Cc2ccccc2C1=O	> 500	
CC(C)C[C@@H](C(=O)N[C@@H](Cc1ccccc1)C(=O)O)N1Cc2ccccc2C1=O	> 500	
C[C@H](NC(=O)[C@H](Cc1ccc(-c2cc(CO)ccc2F)cc1)N1Cc2cc(Br)ccc2C1=O)C(=O)O	1.5	
CC(C)[C@@H](C(=O)N[C@@H](C)C(=O)O)N1Cc2cc(Cl)ccc2C1=O	14	
CC(C)C[C@H](NC(=O)[C@H](C(C)C)N1Cc2ccccc2C1=O)C(=O)O	> 500	
CC[C@H](C)[C@H](NC(=O)[C@H](CC(C)C)N1Cc2ccccc2C1=O)C(=O)O	> 500	
CC(C)[C@@H](C(=O)N[C@@H](C)C(=O)O)N1Cc2c(Cl)cccc2C1=O	> 200	
CC(C)C[C@H](NC(=O)[C@H](Cc1ccccc1)N1Cc2ccccc2C1=O)C(=O)O	> 500	
CC(Oc1ccc(-c2cc(N)nc3[nH]ccc23)cc1Cl)C(=O)O (centres undefined)		inhibition [13]: > 60%
